ChEMBL document CHEMBL4261496, “Targeting quinolone- and aminocoumarin-resistant bacteria with new gyramide analogs that inhibit DNA gyrase” (Medchemcomm, 2017)
pIC50: −log10 of the molar value. Values after ≈ are worked out from the molar mass of the structure shown. Active and inactive are the calls of the source. No cut-off for these calls is given here.

Experiments:
[1] = tested on: Escherichia coli; assay: Antibacterial activity against Escherichia coli BW25113 after 16 to 18 hrs by broth microdilution method; format: functional
[2] = tested on: Escherichia coli; assay: Antibacterial activity against Escherichia coli JW5503 after 16 to 18 hrs by broth microdilution method; format: functional
[3] = tested on: Escherichia coli; assay: Antibacterial activity against Escherichia coli MC4100 after 16 to 18 hrs by broth microdilution method; format: functional
[4] = tested on: Escherichia coli; assay: Antibacterial activity against Escherichia coli BAS849 after 16 to 18 hrs by broth microdilution method; format: functional
[5] = tested on: Escherichia coli; assay: Antibacterial activity against Escherichia coli UPEC after 16 to 18 hrs by broth microdilution method; format: functional
[6] = tested on: Acinetobacter baumannii; assay: Antibacterial activity against Acinetobacter baumannii clinical isolate after 16 to 18 hrs by broth microdilution method; format: functional
[7] = tested on: Edwardsiella tarda; assay: Antibacterial activity against Edwardsiella tarda clinical isolate after 16 to 18 hrs by broth microdilution method; format: functional
[8] = tested on: Klebsiella aerogenes; assay: Antibacterial activity against Enterobacter aerogenes clinical isolate after 16 to 18 hrs by broth microdilution method; format: functional
[9] = tested on: Klebsiella pneumoniae; assay: Antibacterial activity against Klebsiella pneumoniae after 16 to 18 hrs by broth microdilution method; format: functional
[10] = tested on: Morganella morganii; assay: Antibacterial activity against Morganella morganii clinical isolate after 16 to 18 hrs by broth microdilution method; format: functional
[11] = tested on: Pseudomonas aeruginosa; assay: Antibacterial activity against Pseudomonas aeruginosa after 16 to 18 hrs by broth microdilution method; format: functional
[12] = tested on: Salmonella typhimurium; assay: Antibacterial activity against Salmonella enterica subsp. enterica serovar Typhimurium after 16 to 18 hrs by broth microdilution method; format: functional
[13] = tested on: Shigella flexneri; assay: Antibacterial activity against Shigella flexneri after 16 to 18 hrs by broth microdilution method; format: functional
[14] = tested on: Bacillus subtilis; assay: Antibacterial activity against Bacillus subtilis after 16 to 18 hrs by broth microdilution method; format: functional
[15] = tested on: Bacillus cereus; assay: Antibacterial activity against Bacillus cereus after 16 to 18 hrs by broth microdilution method; format: functional
[16] = tested on: Enterococcus faecalis; assay: Antibacterial activity against Enterococcus faecalis after 16 to 18 hrs by broth microdilution method; format: functional
[17] = tested on: Enterococcus faecium; assay: Antibacterial activity against Enterococcus faecium after 16 to 18 hrs by broth microdilution method; format: functional
[18] = tested on: Staphylococcus aureus; assay: Antibacterial activity against Staphylococcus aureus subsp. aureus clinical isolate after 16 to 18 hrs by broth microdilution method; format: functional
[19] = tested on: Staphylococcus saprophyticus; assay: Antibacterial activity against Staphylococcus saprophyticus clinical isolate after 16 to 18 hrs by broth microdilution method; format: functional
[20] = tested on: Staphylococcus epidermidis; assay: Antibacterial activity against Staphylococcus epidermidis clinical isolate after 16 to 18 hrs by broth microdilution method; format: functional
[21] = tested on: Streptococcus agalactiae; assay: Antibacterial activity against Streptococcus agalactiae after 16 to 18 hrs by broth microdilution method; format: functional
[22] = tested on: Streptococcus pyogenes; assay: Antibacterial activity against Streptococcus pyogenes after 16 to 18 hrs by broth microdilution method; format: functional
[23] = tested on: Escherichia coli; assay: Antibacterial activity against gyramide-resistant Escherichia coli JW5503 harboring GyrA Pro35Thr mutant after 16 to 18 hrs by broth microdilution method; format: functional
[24] = tested on: Escherichia coli; assay: Antibacterial activity against gyramide-resistant Escherichia coli JW5503 harboring GyrA Ser97Pro mutant after 16 to 18 hrs by broth microdilution method; format: functional
[25] = tested on: Escherichia coli; assay: Antibacterial activity against gyramide-resistant Escherichia coli JW5503 harboring GyrA Phe96Leu mutant after 16 to 18 hrs by broth microdilution method; format: functional
[26] = tested on: Escherichia coli; assay: Antibacterial activity against gyramide-resistant Escherichia coli JW5503 harboring GyrA His45Tyr mutant after 16 to 18 hrs by broth microdilution method; format: functional
[27] = tested on: Escherichia coli; assay: Antibacterial activity against gyramide-resistant Escherichia coli JW5503 harboring GyrB Thr508Met mutant after 16 to 18 hrs by broth microdilution method; format: functional
[28] = tested on: Escherichia coli; assay: Antibacterial activity against ciprofloxacin-resistant Escherichia coli JW5503 harboring GyrA Ser83Leu mutant after 16 to 18 hrs by broth microdilution method; format: functional
[29] = tested on: Escherichia coli; assay: Antibacterial activity against ciprofloxacin-resistant Escherichia coli JW5503 harboring GyrA Asp87Gly mutant after 16 to 18 hrs by broth microdilution method; format: functional
[30] = tested on: Escherichia coli; assay: Antibacterial activity against ciprofloxacin-resistant Escherichia coli JW5503 harboring GyrA Asp87Tyr mutant after 16 to 18 hrs by broth microdilution method; format: functional
[31] = tested on: Escherichia coli; assay: Antibacterial activity against Escherichia coli HB101 after 16 to 18 hrs by broth microdilution method; format: functional
[32] = tested on: Escherichia coli; assay: Antibacterial activity against Escherichia coli HB101 after 16 to 18 hrs in presence of PAbetaN by broth microdilution method; format: functional
[33] = Ratio of MIC for Escherichia coli BW25113 to MIC for Escherichia coli JW5503; format: functional
[34] = tested on: Escherichia coli; assay: Ratio of MIC for Escherichia coli MC4100 to MIC for Escherichia coli BAS849; format: functional
[35] = tested on: Escherichia coli; assay: Ratio of MIC for gyramide-resistant Escherichia coli JW5503 harboring GyrA Pro35Thr mutant to MIC for Escherichia coli JW5503; format: functional
[36] = tested on: Escherichia coli; assay: Ratio of MIC for gyramide-resistant Escherichia coli JW5503 harboring GyrA Ser97Pro mutant to MIC for Escherichia coli JW5503; format: functional
[37] = tested on: Escherichia coli; assay: Ratio of MIC for gyramide-resistant Escherichia coli JW5503 harboring GyrA Phe96Leu mutant to MIC for Escherichia coli JW5503; format: functional
[38] = tested on: Escherichia coli; assay: Ratio of MIC for gyramide-resistant Escherichia coli JW5503 harboring GyrA His45Tyr mutant to MIC for Escherichia coli JW5503; format: functional
[39] = tested on: Escherichia coli; assay: Ratio of MIC for gyramide-resistant Escherichia coli JW5503 harboring GyrB Ser464Phe mutant to MIC for Escherichia coli JW5503; format: functional
[40] = tested on: Escherichia coli; assay: Ratio of MIC for ciprofloxacin-resistant Escherichia coli JW5503 harboring GyrA Asp87Tyr mutant to MIC for Escherichia coli JW5503; format: functional
[41] = tested on: Escherichia coli; assay: Ratio of MIC for ciprofloxacin-resistant Escherichia coli JW5503 harboring GyrA Ser83Leu mutant to MIC for Escherichia coli JW5503; format: functional
[42] = tested on: Escherichia coli; assay: Ratio of MIC for ciprofloxacin-resistant Escherichia coli JW5503 harboring GyrA Asp87Gly mutant to MIC for Escherichia coli JW5503; format: functional
[43] = tested on: Escherichia coli; assay: Ratio of MIC for ciprofloxacin-resistant Escherichia coli JW5503 harboring GyrB Ser464Phe mutant to MIC for Escherichia coli JW5503; format: functional
[44] = tested on: Escherichia coli; assay: Ratio of MIC for novobiocin-resistant Escherichia coli CC5 harboring GyrB Arg136His mutant to MIC for Escherichia coli HB101; format: functional
[45] = tested on: Escherichia coli; assay: Ratio of MIC for novobiocin-resistant Escherichia coli LE316 harboring GyrB Arg136Val mutant to MIC for Escherichia coli HB101; format: functional
[46] = tested on: Escherichia coli; assay: Ratio of MIC for novobiocin-resistant Escherichia coli CC7 harboring GyrB Arg136Ser mutant to MIC for Escherichia coli HB101; format: functional
[47] = biological target: DNA gyrase (Escherichia coli, UniProt P0AES4+P0AES6); assay: Inhibition of Escherichia coli DNA gyrase assessed as inhibition of pUC19 supercoiling after 30 mins by agarose gel electrophoresis; format: protein-complex assay
[48] = biological target: DNA gyrase (Escherichia coli) (UniProt P0AES6+P0AES4); assay: Inhibition of Escherichia coli DNA gyrase ATPase activity up to 100 uM using DNA as substrate after 60 mins; format: protein-complex assay
[49] = tested on: Escherichia coli; assay: Antibacterial activity against Escherichia coli JW5503 transfected with empty vector in absence of IPTG induction after 16 hrs by broth microdilution method; format: functional; details: JW5503, 16 h
[50] = tested on: Escherichia coli; assay: Antibacterial activity against Escherichia coli JW5503 overexpressing gyrA in presence of IPTG induction after 16 hrs by broth microdilution method; format: functional; details: JW5503, 16 h
[51] = tested on: Escherichia coli; assay: Antibacterial activity against Escherichia coli JW5503 overexpressing gyrA in absence of IPTG induction after 16 hrs by broth microdilution method; format: functional; details: JW5503, 16 h
[52] = tested on: Escherichia coli; assay: Antibacterial activity against Escherichia coli JW5503 overexpressing gyrB in presence of IPTG induction after 16 hrs by broth microdilution method; format: functional; details: JW5503, 16 h
[53] = tested on: Escherichia coli; assay: Antibacterial activity against Escherichia coli JW5503 overexpressing gyrA/gyrB in presence of IPTG induction after 16 hrs by broth microdilution method; format: functional; details: JW5503, 16 h
[54] = tested on: Escherichia coli; assay: Antibacterial activity against Escherichia coli JW5503 overexpressing gyrA/gyrB in absence of IPTG induction after 16 hrs by broth microdilution method; format: functional; details: JW5503, 16 h
[55] = tested on: Escherichia coli; assay: Antibacterial activity against Escherichia coli JW5503 simultaneously overexpressing gyrA/gyrB in presence of IPTG induction after 16 hrs by broth microdilution method; format: functional, organism-based

## N#Cc1cccc(S(=O)(=O)N[C@@H]2CCN(Cc3ccc(-c4ccccc4)cc3)C2)c1
[1]
  MIC: 16 mg/L (≈ 38.3 µM)
[2]
  MIC: 0.1 mg/L (≈ 0.24 µM)
[3]
  MIC: 8 mg/L (≈ 19.2 µM)
[4]
  MIC: 1 mg/L (≈ 2.4 µM)
[5]
  MIC: 16 mg/L (≈ 38.3 µM)
[6]
  MIC: > 16 mg/L
[7]
  MIC: 16 mg/L (≈ 38.3 µM)
[8]
  MIC: > 16 mg/L
[9]
  MIC: > 16 mg/L
[10]
  MIC: > 16 mg/L
[11]
  MIC: > 16 mg/L
[12]
  MIC: 2 mg/L (≈ 4.79 µM)
[13]
  MIC: 8 mg/L (≈ 19.2 µM)
[14]
  MIC: > 16 mg/L
[15]
  MIC: > 16 mg/L
[16]
  MIC: > 16 mg/L
[17]
  MIC: > 16 mg/L
[18]
  MIC: > 16 mg/L
[19]
  MIC: > 16 mg/L
[20]
  MIC: > 16 mg/L
[21]
  MIC: > 16 mg/L
[22]
  MIC: > 16 mg/L
[23]
  MIC: 10 mg/L (≈ 24 µM)
[24]
  MIC: > 10 mg/L
[25]
  MIC: 10 mg/L (≈ 24 µM)
[26]
  MIC: 10 mg/L (≈ 24 µM)
[27]
  MIC: 10 mg/L (≈ 24 µM)
[28]
  MIC: 0.2 mg/L (≈ 0.479 µM)
[29]
  MIC: 0.4 mg/L (≈ 0.958 µM)
[30]
  MIC: 0.4 mg/L (≈ 0.958 µM)
[31]
  MIC: > 16 mg/L
[32]
  MIC: 0.1 mg/L
[33]
  Ratio: 160
[34]
  Ratio: 8
[35]
  Ratio: 10 - 100
[36]
  Ratio: 10 - 100
[37]
  Ratio: 10 - 100
[38]
  Ratio: 10 - 100
[39]
  Ratio: 10 - 100
[40]
  Ratio: 2 - 4
[41]
  Ratio: 2 - 4
[42]
  Ratio: 2 - 4
[43]
  Ratio: 2 - 4
[44]
  Ratio: 2 - 4
[45]
  Ratio: 2 - 4
[46]
  Ratio: 2 - 4
[47]
  pIC50: 7.28
[48]
  inhibition: inactive
[49]
  MIC: 0.2 mg/L (≈ 0.479 µM)
[50]
  MIC: 0.1 mg/L
[51]
  MIC: 0.2 mg/L (≈ 0.479 µM)
[52]
  MIC: 0.1 mg/L
[53]
  MIC: 0.1 mg/L
[54]
  MIC: 0.2 mg/L (≈ 0.479 µM)
[55]
  Activity: Active
